“Also recorded” adds a separate entry of the source.
Experiments:
[1] = unmodified precursor dye; cited from earlier work
[2] = Solubility of the dyes in water, mineral oil and organic solvents; type: physicochemical; settings: for solubility in organic solvents: which solvents dissolve the dye
[3] = Stability of kaolin pigment powder in oil and in water; type: physicochemical; settings: product deposited on kaolin; oil / mineral oil and water
Description: A small amount of the product was dissolved in acetone (10 mg in 20 mL), which was slowly added to kaolin (10 g). The solution was heated to 30° C. and the solvent allowed to slowly evaporate with mixing.
A small amount of the product was dissolved in methylene chloride (50 mg in 30 mL), which was slowly added to kaolin (5 g). The suspension was heated to 30° C. and the solvent allowed to slowly evaporate with mixing.

Row | SMILES | solubility in water of the precursor dye [1] | solubility in acetone, alcohol, and chlorinated solvents [2] | solubility in mineral oil [2] | solubility in water [2] | solubility in organic solvents [2] | also measured
1 | O=C1OC2(c3ccc(O)cc3Oc3cc(O)ccc32)c2ccccc21 [fluorescein] | soluble in water |  |  |  |  | 
2 | Cc1cc2nc3ccc(N(C)C)cc3[s+]c2cc1N.[Cl-] [toluidine blue O] | water soluble |  |  |  |  | 
3 | C=Cc1ccc(Nc2nc(OCCCCCCCC)nc(Oc3ccc(C(c4ccccc4)(c4ccccc4)c4ccccc4)cc3)n2)cc1 [Compound II] |  | show solubility | insoluble | insoluble | solubility only to dichloromethane and toluene; also recorded: only soluble in boiling toluene or dichloromethane | solubility in organic solvents ([2]; listed as Example 2): insoluble to common organic solvents, except for hot dichloromethane and toluene
4 | N=C1C=CC(=C(c2ccc(N)cc2)c2ccc(N)cc2)C=C1 [pararosaniline] | water soluble |  |  |  |  | 
5 | CC1CCC(Oc2nc(Nc3ccc(CO)cc3)nc(OC3CCC(C)CC3C(C)C)n2)C(C(C)C)C1 (stereo not shown) [Compound III] |  |  |  |  | soluble only in alcohol or acetone | stability of the resulting powder in oil and in water [3]: stable in water and in mineral oil
6 | CC1CCC(Oc2nc(Oc3ccc4c(-c5ccccc5C(=O)O)c5ccc(=O)cc-5oc4c3)nc(OC3CCC(C)CC3C(C)C)n2)C(C(C)C)C1 (stereo not shown) [Compound IV] |  | dissolves | insoluble | not soluble | soluble only in alcohol or acetone | 
7 | CCCCCCCCOc1nc(Nc2cc3sc4cc(=[N+](C)C)ccc-4nc3cc2C)nc(N(c2ccccc2)c2ccccc2)n1 [Compound I] |  | show solubility | insoluble | insoluble |  | solubility in methanol ([2]; methanol): soluble; stability of the resulting powder in oil and in water [3]: stable in oil and in water
